Data from PubChem BioAssay AID2060496 (Molecular Pharmacology Branch, DTP, NCI, 2025).

System: 276233-004-R-J1-PDC complex spheroid viability
Assay: Anticancer human tumor 276233-004-R-J1-PDC patient-derived colon adenocarcinoma cell line growth inhibition [GQUAD]
Conditions: for IC50: curve of first compound; for viability, T/C: stronger effect = lower value
Method in brief: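 Viability of tumor cells grown as complex spheroids with endothelial and stromal cells, exposed to drug combinations. Top concentration at or near clinical Cmax (else 10 microM), diluted in half-log increments.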
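Also: spheroids exposed to drugs for seven days.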
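For viability, T/C in this document: 100% = DMSO vehicle control viability.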

With `COc1ncnc(C2CC2)c1-c1ncc2cnn(Cc3ccc(-c4nc(C(F)(F)F)cn4C(C)C)cc3)c2n1` + Cc1cnc(CNC(=O)c2c(=O)c3ccc(N4CCCN(C)CC4)nc3n3c2sc2ccccc23)cn1 the IC50 (second compound 0.0316 µM) was over 10 µM, the IC50 (second compound 0.1 µM) was over 10 µM and the IC50 (second compound 0.316 µM) was over 10 µM. It also gave an IC50 (second compound 1 µM) of over 10 µM, an IC50 (second compound 3.16 µM) of over 10 µM and an IC50 (second compound 10 µM) of over 10 µM. For the same compound, the viability, T/C (second compound 0.0316 µM, first compound 0.0316 µM) was 81.9%, the viability, T/C (second compound 0.0316 µM, first compound 0.1 µM) was 77.1% and the viability, T/C (second compound 0.0316 µM, first compound 0.316 µM) was 66.1%. The viability, T/C (second compound 0.0316 µM, first compound 1 µM) was 79.7%, the viability, T/C (second compound 0.0316 µM, first compound 3.16 µM) was 86.2% and the viability, T/C (second compound 0.0316 µM, first compound 10 µM) was 89%. The viability, T/C (second compound 0.1 µM, first compound 0.0316 µM) was 76.2%, the viability, T/C (second compound 0.1 µM, first compound 0.1 µM) was 95.5% and the viability, T/C (second compound 0.1 µM, first compound 0.316 µM) was 83%. The viability, T/C (second compound 0.1 µM, first compound 1 µM) was 84.2%, the viability, T/C (second compound 0.1 µM, first compound 3.16 µM) was 76.9% and the viability, T/C (second compound 0.1 µM, first compound 10 µM) was 84.5%. For the same compound, the viability, T/C (second compound 0.316 µM, first compound 0.0316 µM) was 87.3%, the viability, T/C (second compound 0.316 µM, first compound 0.1 µM) was 91.2% and the viability, T/C (second compound 0.316 µM, first compound 0.316 µM) was 83.4%. It also gave a viability, T/C (second compound 0.316 µM, first compound 1 µM) of 87.9%, a viability, T/C (second compound 0.316 µM, first compound 3.16 µM) of 78.4% and a viability, T/C (second compound 0.316 µM, first compound 10 µM) of 86.4%. The viability, T/C (second compound 1 µM, first compound 0.0316 µM) was 84.6%, the viability, T/C (second compound 1 µM, first compound 0.1 µM) was 81.4% and the viability, T/C (second compound 1 µM, first compound 0.316 µM) was 81.5%. For the same compound, the viability, T/C (second compound 1 µM, first compound 1 µM) was 74.5%, the viability, T/C (second compound 1 µM, first compound 3.16 µM) was 74.8% and the viability, T/C (second compound 1 µM, first compound 10 µM) was 89.6%. For the same compound, the viability, T/C (second compound 3.16 µM, first compound 0.0316 µM) was 76.1%, the viability, T/C (second compound 3.16 µM, first compound 0.1 µM) was 65.1% and the viability, T/C (second compound 3.16 µM, first compound 0.316 µM) was 80.5%. For the same compound, the viability, T/C (second compound 3.16 µM, first compound 1 µM) was 62.4%, the viability, T/C (second compound 3.16 µM, first compound 3.16 µM) was 64.5% and the viability, T/C (second compound 3.16 µM, first compound 10 µM) was 75.5%. It also gave a viability, T/C (second compound 10 µM, first compound 0.0316 µM) of 67.9%, a viability, T/C (second compound 10 µM, first compound 0.1 µM) of 60.9% and a viability, T/C (second compound 10 µM, first compound 0.316 µM) of 64.3%. For the same compound, the viability, T/C (second compound 10 µM, first compound 1 µM) was 62.9%, the viability, T/C (second compound 10 µM, first compound 3.16 µM) was 69.6% and the viability, T/C (second compound 10 µM, first compound 10 µM) was 65.2%.
